Experimental data reported in patent publication US5854244A, “Melamine derivatives for use in the treatment of cancer” (priority 1992, dated 1998).
pIC50: −log10 of the molar value. Like-named read-outs stand apart in the source and are kept apart here.

How the values were obtained:
[1] = Dimer/polymer formation in solution (overnight standing); format: physicochemical; conditions: aqueous solution, 4-5 mg/ml, overnight (14-16 hours), room temperature
Description: (ii) Dimer/polymer Formation in Solution
An aqueous solution of CB7646 and trimelamol in 4ml aliquots at a concentration of 4-5 mg/ml was left to stand overnight (14-16 hours) at room temperature.

PC6 murine plasmacytoma = test: MTT cytotoxicity assay, PC6; format: cell-based; conditions: Mus musculus, continual drug exposure, parenthesis = standard deviation or ± values
Description: (§1) The cytotoxicity of CB7646 and CB7683 was compared with trimelamol against mammalian tumour cell lines using the MTT assay. This assay is based upon the selective ability of living but not dead cells to reduce the tetrazolium salt MTT (3-[4,5-dimethylthiazol-2-yl]-25-diphenyl tetrazolium bromide) to purple formazan (Mosmann et al, 1983, J. Immun. Methods 65; 55-63; Carmichael et al (1987) Cancer Res. 47; 936-942). Cell lines were grown in culture with continual drug exposure. The IC50 values (in μm) of the compounds (i.e. concentration giving 50% inhibition of cell growth as compared with untreated control) were determined, and are shown in Table 2. Figures in parenthesis refer to standard deviation or ± values for 2 or more measurements.
PC6 murine plasmacytoma

[2] = system: Walker 256 rat mammary carcinoma; test: MTT cytotoxicity assay, Walker 256; format: cell-based
Description: (§2) The cytotoxicity of CB7646 and CB7683 was compared with trimelamol against mammalian tumour cell lines using the MTT assay. […] Cell lines were grown in culture with continual drug exposure. […] Figures in parenthesis refer to standard deviation or ± values for 2 or more measurements.

[3] = system: H69 human small cell lung cancer; test: MTT cytotoxicity assay, H69; format: cell-based
Description: as §2

[4] = system: CH1 human epithelial ovarian cancer; test: MTT cytotoxicity assay, CH1; format: cell-based; conditions: continual drug exposure, parenthesis = standard deviation or ± values
Description: as §1
CH1, 41M human epithelial ovarian cancer

ADJ/PC6 tumour = test: Antitumour activity towards the ADJ/PC6 tumour in mice; format: in vivo; conditions: for % Inhibition (Tumour wt as % of Control Value): 5 consecutive days, day 30; for T.I.: Example 7 (repeat of Example 6); for ED90: Mus musculus
Text: (§3) The anti-tumour activity of CB 7646 prepared in accordance with Example 1 against ADJ/PC6 tumour in mice were compared with that of trimelamol. An implant of 1 mm^3 of tumour was made on day 1. On day 20, animals bearing tumours of comparative size were placed into groups of 4 and treated with drug on 5 consecutive days, and then left until day 30. Tumours from the treated and controls were dissected and weighed as a measure of tumour growth. Compounds were given in 5% DMSO/dextrose.
(§4) Example 6 was repeated to obtain more precise LD50 values.

Lethality (LD50) in mice = conditions: mouse, in vivo
Text: as §3, §4

PXN65 Xenografts = test: In vivo activity against PXN65 ovarian cancer xenografts; parameters: species or system mice; conditions: for time to tumour regression: treated mice
Description: CB7646 was tested in vivo against ovarian cancer xenografts of the PXN65 cell line transplanted into mice, substantially in accordance with Harrap et al, Annals of Oncology, 1990, 1;65-76. PXN65 is a cisplatin-sensitive line.

[5] = Judson et al 1989, 1991; cited from earlier work
ovarian carcinomas = conditions: cited from earlier work
[6] = Stability in solution (half-life by HPLC)
Description: Compounds were dissolved in DMSO to a concentration of 50 mM. Aliquots were then dispersed into the appropriate medium to give a final concentration of 100 μM in a volume of about 10 ml. […] (to simulate room temperature) or at 37° C. in water, 0.9% NaCl or 5% dextrose. Aliquots were removed from each preparation at intervals to assess their stability (i.e. half-life, T^1/2) which was measured using HPLC analysis. This entailed an isocratic elution using a mobile phase comprising 10% acetonitrile, 90% 0.05M ammonium bicarbonate. The 15 cm column was packed with C8 octyl Spherisorb material. The column was encased in a cooling cabinet which was maintained at 14°-17° C. Standards of freshly prepared solutions were run throughout the analysis period by way of controls.
T^1/2 measurements were read from a semi-logarithmic plot of peak area (y) versus time (x).

[7] = WALKER 256, MTT, continual drug exposure, parenthesis = standard deviation or ± values, read-out: IC50
[8] = MTT, continual drug exposure, parenthesis = standard deviation or ± values, read-out: IC50
[9] = ADJ/PC6, Example 7 (repeat of Example 6)
[10] = Example 7 (repeat of Example 6)

Structure (SMILES)	Dimer/polymer formation (precipitate) [1]	pIC50 (PC6 murine plasmacytoma)	pIC50 [2, 7]	pIC50 [3, 8]	pIC50 [4]	% Inhibition (Tumour wt as % of Control Value) (ADJ/PC6 tumour; 3.25 mg/kg) [%]	% Inhibition (Tumour wt as % of Control Value) (ADJ/PC6 tumour; 6.25 mg/kg) [%]	% Inhibition (Tumour wt as % of Control Value) (ADJ/PC6 tumour; 12.5 mg/kg) [%]	% Inhibition (Tumour wt as % of Control Value) (ADJ/PC6 tumour; 25 mg/kg) [%]	% Inhibition (Tumour wt as % of Control Value) (ADJ/PC6 tumour; 50 mg/kg) [%]	% Inhibition (Tumour wt as % of Control Value) (ADJ/PC6 tumour; 100 mg/kg) [%]	T.I. (ADJ/PC6 tumour)	ED90 (ADJ/PC6 tumour; [9]) [mg/kg]	LD50 (Lethality (LD50) in mice; [10]) [mg/kg]	Deaths (PXN65 Xenografts; 15 mg/kg, 20 doses)	GD (Growth delay) (PXN65 Xenografts; 15 mg/kg, 20 doses) [days]	time to tumour regression (PXN65 Xenografts; PXN65 xenografts) [days]	also measured
CN(CO)c1nc(N(C)CO)nc(N(C)CO)n1 [Trimelamol, 2,4,6-tris{(hydroxymethyl) (methyl)amino}-1,3,5-triazine, reference compound]	formed a heavy precipitate	4.89	5.03	5.07	4.63	0	18.2	13.7	45.5	83.9	96.0	2.9	24	70	0	> 170	≤ 28	Deaths (PXN65 Xenografts; 30 mg/kg, 5 doses): 0; GD (Growth delay) (PXN65 Xenografts; 30 mg/kg, 5 doses): > 273 days; polymerisation during Phase I and II clinical trials [5]: proved problematic; half-life of trimelamol activity in humans (ovarian carcinomas; humans, Judson et al 1989): short; clinical activity (ovarian carcinomas; particularly against ovarian carcinomas): clinically active; half-life at 100 µM ([6]; 0.9% nacl, pH 4.9): 4.55 h; half-life at 100 µM ([6]; 5% dextrose, pH 4): 5.8 h; half-life at 100 µM ([6]; deionised water, pH 7.5): 2 h
CNc1nc(N(C)CO)nc(N(C)CO)n1 [CB7646, 2,4-Bis[(hydroxymethyl) (methyl)amino]6-methylamino-1,3,5-triazine]	did not form a precipitate	4.60	4.97	4.83	4.45	5.6	-1.0	13.7	5.6	76.8	98.0	4.6	31	142	0	> 140	≤ 28	pIC50 ([2]; Walker 256, CB7646 prepared by recrystallisation method of Example 2, read-out: IC50 (repeat, recrystallised preparation)): 4.98; pIC50 ([3]; CB7646 prepared by recrystallisation method of Example 2, read-out: IC50 (repeat, recrystallised preparation)): 4.78; Therapeutic Index (TI) (ADJ/PC6 tumour; ADJ/PC6 tumour, Example 6): > 1.4; ED90 (ADJ/PC6 tumour; ADJ/PC6, ADJ/PC6 tumour, Example 6): 74 mg/kg; LD50 (Lethality (LD50) in mice; Example 6): > 100 mg/kg; efficacy (summary) (PXN65 Xenografts; PXN65 xenografts, relative to trimelamol): comparable efficacy to trimelamol; half-life at 100 µM ([6]; 0.9% nacl, pH 5, T^1/2, 0.9% NaCl, pH 5.0, r.t.): 16 h; half-life at 100 µM ([6]; 5% dextrose, pH 4, T^1/2, 5% Dextrose, pH 4.0, r.t.): 22 h; half-life at 100 µM ([6]; deionised water, pH 7.5, T^1/2, Deionised water, pH 7.5, r.t.): 18 h; half-life at 100 µM ([6]; deionised water, pH 7.5, T^1/2, deionised water, pH 7.5, 37 °C): 3 h; stability (summary of Table 1) ([6]; relative to trimelamol): superior stability
OCN(CC(F)(F)F)c1nc(NCC(F)(F)F)nc(N(CO)CC(F)(F)F)n1 [CB7683, 2,4-Bis[(hydroxymethyl)(2,2,2 trifluoroethyl)amino]-6-(2,2,2-trifluoroethyl)amino-1,3,5-triazine]	–	4.50	–	5.05	4.39	–	–	–	–	–	–	–	–	–	–	–	–	–
